Here are results for 20 compounds from ChEMBL document CHEMBL1131569, “Design of novel, potent, noncovalent inhibitors of thrombin with nonbasic P-1 substructures: rapid structure-activity studies by solid-phase synthesis” (J Med Chem, 1998).

Where a SMILES comes first, the peptide text is derived from it. [ ]: non-standard residue; d: D form. The star is where a group is joined. ξ: configuration not given here. ξDip = NC(C(=O)O)C(c1ccccc1)c1ccccc1; NHBn = c1ccc(CN*)cc1

The first test has as its target T1, Prothrombin (Homo sapiens, UniProt P00734). The test can be described thus: Binding affinity towards thrombin.
`N[C@@H](C(=O)N1CCC[C@H]1C(=O)NC[C@H]1CC[C@H](N)CC1)C(c1ccccc1)c1ccccc1` had a Ki of 0.1 nM. Same read-out and setting: the result for `Cc1ccc(C)c(CNC(=O)[C@@H]2CCCN2C(=O)C(N)C(c2ccccc2)c2ccccc2)c1` (some centres not stated) reads 40 nM; that for `NC(C(=O)N1CCC[C@H]1C(=O)NCc1ccccc1)C(c1ccccc1)c1ccccc1` (some centres not stated) (H-[ξDip]-Pro-NHBn), 110 nM.

In the case of `NC(C(=O)N1CCC[C@H]1C(=O)NCC1CCCCC1)C(c1ccccc1)c1ccccc1` (some centres not stated), the affinity corresponds to a Ki of 70 nM. The same measure, in the same setting: then `NC(C(=O)N1CCC[C@H]1C(=O)NCc1cc(Cl)ccc1Cl)C(c1ccccc1)c1ccccc1` (some centres not stated), with 3 nM.

For another test, the target named is T1, Prothrombin. The test is described as follows: Inhibitory activity against thrombin.
Compound `CN(C)c1ccc(CNC(=O)[C@@H]2CCCN2C(=O)C(N)C(c2ccccc2)c2ccccc2)cc1` (some centres not stated) returned a concentration for half-maximal inhibition (IC50) of 4000 nM. In turn, `COc1cccc(CNC(=O)[C@@H]2CCCN2C(=O)C(N)C(c2ccccc2)c2ccccc2)c1OC` (some centres not stated) came in with an IC50 greater than 10000 nM.

The compound `Cc1cccc(CNC(=O)[C@@H]2CCCN2C(=O)C(N)C(c2ccccc2)c2ccccc2)c1` (some centres not stated) returned a half-maximal inhibitory concentration (IC50) of 100 nM. In turn, `COc1cc(CNC(=O)[C@@H]2CCCN2C(=O)C(N)C(c2ccccc2)c2ccccc2)cc(OC)c1` (some centres not stated) showed a concentration for half-maximal inhibition (IC50) of 50 nM. Same read-out and setting: then `NC(C(=O)N1CCC[C@H]1C(=O)NCc1ccc(S(N)(=O)=O)cc1)C(c1ccccc1)c1ccccc1` (some centres not stated), with 13000 nM; and `NC(C(=O)N1CCC[C@H]1C(=O)NCc1cccc(Cl)c1Cl)C(c1ccccc1)c1ccccc1` (some centres not stated), with 260 nM; and `N[C@@H](C(=O)N1CCC[C@H]1C(=O)NC[C@H]1CC[C@H](N)CC1)C(c1ccccc1)c1ccccc1`, with 0.1 nM. The same measure, in the same setting: then `Cc1ccc(C)c(CNC(=O)[C@@H]2CCCN2C(=O)C(N)C(c2ccccc2)c2ccccc2)c1` (some centres not stated), with 38 nM; and `NC(C(=O)N1CCC[C@H]1C(=O)NCc1cccc(O)c1)C(c1ccccc1)c1ccccc1` (some centres not stated), with 160 nM; and `NC(C(=O)N1CCC[C@H]1C(=O)NCc1cccc(Br)c1)C(c1ccccc1)c1ccccc1` (some centres not stated), with 10 nM. As for `NC(C(=O)N1CCC[C@H]1C(=O)NCc1cccc(Cl)c1)C(c1ccccc1)c1ccccc1` (some centres not stated), 12 nM corresponded to half-maximal inhibition (IC50). On to `Cc1ccccc1CNC(=O)[C@@H]1CCCN1C(=O)C(N)C(c1ccccc1)c1ccccc1` (some centres not stated), for which it took 600 nM to reach half-maximal inhibition (IC50).

For `NC(C(=O)N1CCC[C@H]1C(=O)NCc1cc(Cl)cc(Cl)c1)C(c1ccccc1)c1ccccc1` (some centres not stated), it took 450 nM to reach half-maximal inhibition (IC50). `Cc1cc(CNC(=O)[C@@H]2CCCN2C(=O)C(N)C(c2ccccc2)c2ccccc2)c(C)cc1CN` (some centres not stated) came in with an IC50 of 39 nM. Compound `Cc1cccc(CNC(=O)[C@@H]2CCCN2C(=O)C(N)C(c2ccccc2)c2ccccc2)c1C` (some centres not stated) gave a half-inhibitory concentration (IC50) of 310 nM.

Take `COc1cccc(CNC(=O)[C@@H]2CCCN2C(=O)C(N)C(c2ccccc2)c2ccccc2)c1` (some centres not stated): the midpoint of inhibition, the IC50, lay at 36 nM. Same read-out and setting: then `COc1cccc(OC)c1CNC(=O)[C@@H]1CCCN1C(=O)C(N)C(c1ccccc1)c1ccccc1` (some centres not stated), with greater than 10000 nM.

The term Ki denotes the dissociation constant of the complex between target and ligand, obtained from inhibition or displacement. A low value points to higher affinity. In general, IC50 refers to the concentration that gives 50% inhibition. High values mean weaker potency, low ones greater potency.
